Test results from paper PMC11024869, “The activity of antimicrobial peptoids against multidrug-resistant ocular pathogens” (Contact lens & anterior eye : the journal of the British …, 2024).
≈ marks a conversion by molar mass, not a printed value. Non-standard residues stand in square brackets, D forms with d. Residues, ends and D or L forms follow the SMILES beside them. Nspe = C[C@H](NCC(=O)O)c1ccccc1; NDecylGly = CCCCCCCCCCNCC(=O)O; Nlys = NCCCCNCC(=O)O

Assays:
Assay type in all cases: cell-based
[1] = system: Pseudomonas aeruginosa PAO1; conditions: PAO1, MHB
From the text: (§3) The S. pneumoniae strains used were SP04, SP06 and SP07 [46] and Streptococcus gallolyticus SV06 (all isolated from eyes of contact lens wearers during adverse events); P. aeruginosa PAO1 (which was originally isolated from a wound, and is an invasive strain containing the gene exoS) as well as isolates from microbial keratitis, PA 235 (invasive strain containing exoS), PA216 (a cytotoxic strain containing exoU), PA219 (cytotoxic strain containing exoU), PA 233 (cytotoxic strain containing exoU), with various susceptibilities to antibiotics were also used [14]. C. albicans ATCC 10231, a yeast, isolated from case of a human bronchomycosis, was also evaluated.
(§4) The peptoids’ minimum inhibitory and bactericidal concentrations (MIC and MBC) were determined using micro broth dilution methods as previously described with slight modifications, [26, 39, 49, 50], and without using acetic acid and bovine serum albumin [39]. Briefly, bacteria or yeast were suspended in Muller Hinton broth (MHB, Oxoid, Thermo Fisher Scientific, Thebarton, SA, Australia) at 0.1 OD660nm, which was equivalent to 1x10^8 colony forming units (CFU) mL^−1. This suspension was further diluted to achieve 5x10^6 CFU mL^−1. The peptoids were diluted in MHB from 250 to 0.24 μg mL^−1 in 96-well polystyrene microplates (COSTAR, Corning Incorporated, New York, NY, USA) [39]. […] This was followed by addition of 100 μL of each microbial suspensions. Wells with only bacteria or the yeast were treated as a negative control, and wells with only MHB medium were treated as a blank. The plates were incubated at 37 °C with shaking at 120 rpm for 24 h. After incubation, the media in each well was serially diluted in phosphate buffered solution and then inoculated onto tryptone soya agar (Oxoid) plates for bacteria, or Sabouraud’s dextrose agar for the yeast, and incubated at 37 °C for 18 hrs. Post incubation, the number of CFUs on the agar plates was counted.

[2] = system: Pseudomonas aeruginosa PA216; conditions: PA216, MHB, 24 h 37 °C
From the text: as §3, §4

[3] = system: Pseudomonas aeruginosa PA219; conditions: PA219, MHB, 24 h 37 °C
From the text: as §3, §4

[4] = system: Pseudomonas aeruginosa PA233; conditions: PA233, MHB, 24 h 37 °C
From the text: All S. aureus strains used were isolated from cases of microbial keratitis (Table 1) with various susceptibilities to antibiotics. The S. pneumoniae strains used were SP04, SP06 and SP07 [46] and Streptococcus gallolyticus SV06 (all isolated from eyes of contact lens wearers during adverse events); P. aeruginosa PAO1 (which was originally isolated from a wound, and is an invasive strain containing the gene exoS) as well as isolates from microbial keratitis, PA 235 (invasive strain containing exoS), PA216 (a cytotoxic strain containing exoU), PA219 (cytotoxic strain containing exoU), PA 233 (cytotoxic strain containing exoU), with various susceptibilities to antibiotics were also used. C. albicans ATCC 10231, a yeast, isolated from case of a human bronchomycosis, was also evaluated.
The peptoids’ minimum inhibitory and bactericidal concentrations (MIC and MBC) were determined using micro broth dilution methods as previously described with slight modifications, [26, 39, 49, 50], and without using acetic acid and bovine serum albumin [39]. Briefly, bacteria or yeast were suspended in Muller Hinton broth (MHB, Oxoid, Thermo Fisher Scientific, Thebarton, SA, Australia) at 0.1 OD660nm, which was equivalent to 1x10^8 colony forming units (CFU) mL^−1. This suspension was further diluted to achieve 5x10^6 CFU mL^−1. The peptoids were diluted in MHB from 250 to 0.24 μg mL^−1 in 96-well polystyrene microplates (COSTAR, Corning Incorporated, New York, NY, USA). This range was selected to cover the range of MIC values previously reported for ESKAPE pathogens. This was followed by addition of 100 μL of each microbial suspensions. Wells with only bacteria or the yeast were treated as a negative control, and wells with only MHB medium were treated as a blank. The plates were incubated at 37 °C with shaking at 120 rpm for 24 h. After incubation, the media in each well was serially diluted in phosphate buffered solution and then inoculated onto tryptone soya agar (Oxoid) plates for bacteria, or Sabouraud’s dextrose agar for the yeast, and incubated at 37 °C for 18 hrs. Post incubation, the number of CFUs on the agar plates was counted.

[5] = system: Pseudomonas aeruginosa PA235; conditions: PA235, MHB, 24 h 37 °C
From the text: as §3, §4

[6] = system: Staphylococcus aureus SA34; conditions: SA34, MHB, 24 h 37 °C
From the text: as §3, §4

[7] = system: Staphylococcus aureus SA65; conditions: SA65, MHB, 24 h 37 °C
From the text: as §3, §4

[8] = system: Staphylococcus aureus SA113; conditions: SA113, MHB, 24 h 37 °C
From the text: as §3, §4

[9] = system: Staphylococcus aureus SA114; conditions: SA114, MHB, 24 h 37 °C
From the text: as §3, §4

[10] = system: Staphylococcus aureus SA117; conditions: SA117, MHB, 24 h 37 °C
From the text: as §3, §4

[11] = system: Streptococcus pneumoniae SP04; conditions: SP04, MHB, 24 h 37 °C
From the text: as §3, §4

[12] = system: Streptococcus pneumoniae SP06; conditions: SP06, MHB, 24 h 37 °C
From the text: as §3, §4

[13] = system: Streptococcus pneumoniae SP07; conditions: SP07, MHB, 24 h 37 °C
From the text: as §3, §4

[14] = system: Streptococcus gallolyticus SG04; conditions: SG04, MHB, 24 h 37 °C
From the text: as §3, §4

[15] = system: viridans group streptococcus SV06; conditions: SV06, MHB, 24 h 37 °C
From the text: as §3, §4

[16] = system: Candida albicans ATCC 10231; test: MIC/MBC (fungicidal) micro broth dilution; conditions: ATCC 10231 (yeast), MHB, 24 h 37 °C
From the text: as §3, §4

horse erythrocytes = test: In vitro assay for hemolysis, horse blood
Procedure: (§1) Hemolysis caused by the peptoids was measured using 18 to 20 mL of a horse or human blood collected in EDTA-coated tubes which has been centrifuged at 500×g for 5 min. The supernatant was discarded and the pellet containing the cells were resuspended in PBS to a final volume of 20 mL. This step was repeated five times. After the final wash, the pellet was resuspended in PBS at the ratio of 1:10 (1 mL red blood cell: 9 mL PBS) to yield a final red blood cell (RBC) concentration of approximately 5 × 10^8 cells mL^−1. The concentration of RBCs was confirmed using a hemocytometer. The peptoids (stock concentration 2 mM) were diluted sequentially (two-fold dilutions) in PBS to final concentrations of […]. All the dilutions were subsequently mixed with the RBC suspension at the ratio of 1:1. MilliQ water was used as a positive control and PBS was used as a negative control in this assay. All samples were incubated at 37 °C for 3 h. Following incubation, the tubes were centrifuged at 500 x g for five mins, the supernatants were collected, transferred to wells in a 96 well plate and their optical density was measured at 540 nm. The percentage of hemolysis was calculated by dividing the absorbance of the test sample by the absorbance of the positive control, and multiplying by 100. Data are presented as the hemolysis caused by each dilution of peptoid, and as the concentration of peptoid that caused 10 % or 50 % lysis of red blood cells.
(§2) The geometric mean is the nth root of the multiplied numbers, where n is the total number of data values. A similar formula was used to calculate the selectivity ratio, but by using the concentration of peptoid that caused 10 % hemolysis.

human erythrocytes = test: In vitro assay for hemolysis, human blood
Procedure: as §1, §2

## CCCCCCCCCCNCC(=O)N(CCCCN)CC(=O)N(CC(=O)N(CC(=O)N(CCCCN)CC(=O)N(CC(=O)N(CC(=O)N(CCCCN)CC(N)=O)[C@@H](C)c1ccccc1)[C@@H](C)c1ccccc1)[C@@H](C)c1ccccc1)[C@@H](C)c1ccccc1 [TM18] (H-[NDecylGly][Nlys][Nspe][Nspe][Nlys][Nspe][Nspe][Nlys]-NH2)
[1]; 5x10^6 CFU mL^−1, 24 h 37 °C, ≥90 % reduction in CFUs
  MIC: 15 µg/mL (≈ 12.1 µM)
[1]; 24 h 37 °C, ≥99.99 % reduction in CFUs
  MBC: 31 µg/mL (≈ 24.9 µM)
[2]; ≥90 % reduction in CFUs
  MIC: 15(12)/15(12) μg mL^−1
[2]; ≥99.99 % reduction in CFUs
  MBC: 15(12)/15(12) μg mL^−1
[3]; ≥90 % reduction in CFUs
  MIC: 15 µg/mL (≈ 12.1 µM)
[3]; ≥99.99 % reduction in CFUs
  MBC: 31 µg/mL (≈ 24.9 µM)
[4]; ≥90 % reduction in CFUs
  MIC: 15 µg/mL (≈ 12.1 µM)
[4]; ≥99.99 % reduction in CFUs
  MBC: 31 µg/mL (≈ 24.9 µM)
[5]; ≥90 % reduction in CFUs
  MIC: 7.8 µg/mL (≈ 6.27 µM)
[5]; ≥99.99 % reduction in CFUs
  MBC: 15 µg/mL (≈ 12.1 µM)
[6]; ≥90 % reduction in CFUs
  MIC: 7.8(6.3)/7.8(6.3) μg mL^−1
[6]; ≥99.99 % reduction in CFUs
  MBC: 7.8(6.3)/7.8(6.3) μg mL^−1
[7]; ≥90 % reduction in CFUs
  MIC: 3.9(3.1)/3.9(3.1) μg mL^−1
[7]; ≥99.99 % reduction in CFUs
  MBC: 3.9(3.1)/3.9(3.1) μg mL^−1
[8]; ≥90 % reduction in CFUs
  MIC: 1.9 µg/mL (≈ 1.53 µM)
[8]; ≥99.99 % reduction in CFUs
  MBC: 1.95 µg/mL (≈ 1.57 µM)
[9]; ≥90 % reduction in CFUs
  MIC: 3.9(3.1)/3.9(3.1) μg mL^−1
[9]; ≥99.99 % reduction in CFUs
  MBC: 3.9(3.1)/3.9(3.1) μg mL^−1
[10]; ≥90 % reduction in CFUs
  MIC: 3.9(3.1)/3.9(3.1) μg mL^−1
[10]; ≥99.99 % reduction in CFUs
  MBC: 3.9(3.1)/3.9(3.1) μg mL^−1
[11]; ≥90 % reduction in CFUs
  MIC: 15(12)/15(12) μg mL^−1
[11]; ≥99.99 % reduction in CFUs
  MBC: 15(12)/15(12) μg mL^−1
[12]; ≥90 % reduction in CFUs
  MIC: 1.9(1.6)/1.9(1.6) μg mL^−1
[12]; ≥99.99 % reduction in CFUs
  MBC: 1.9(1.6)/1.9(1.6) μg mL^−1
[13]; ≥90 % reduction in CFUs
  MIC: 15(12)/15(12) μg mL^−1
[13]; ≥99.99 % reduction in CFUs
  MBC: 15(12)/15(12) μg mL^−1
[14]; ≥90 % reduction in CFUs
  MIC: 15(12)/1512) μg mL^−1
[14]; ≥99.99 % reduction in CFUs
  MBC: 15(12)/1512) μg mL^−1
[15]; ≥90 % reduction in CFUs
  MIC: 15(12)/15(12) μg mL^−1
[15]; ≥99.99 % reduction in CFUs
  MBC: 15(12)/15(12) μg mL^−1
[16]; ≥90 % reduction in CFUs
  MIC: 3.9(3.1)/3.9(3.1) μg mL^−1
[16]; ≥99.99 % reduction in CFUs
  MBC (minimum fungicidal concentration): 3.9(3.1)/3.9(3.1) μg mL^−1
Horse erythrocytes; concentration causing 10 % lysis of horse red blood cells, PBS, 3 h 37 °C, OD 540 nm
  Horse HC10: 3 µM
Horse erythrocytes; concentration causing 50 % lysis of horse red blood cells, PBS, 3 h 37 °C, OD 540 nm
  Horse HC50: 110 µM
Horse erythrocytes; selectivity ratio
  SR horse blood (ratio HC10 to geometric mean MIC): 0.6
Horse erythrocytes; therapeutic index
  TI horse blood (ratio HC50 to geometric mean MIC): 22
Human erythrocytes; concentration causing 10 % lysis of human red blood cells, PBS, 3 h 37 °C, OD 540 nm
  Human HC10: 5 µM
Human erythrocytes; concentration causing 50 % lysis of human red blood cells, PBS, 3 h 37 °C, OD 540 nm
  Human HC50: 225 µM
Human erythrocytes; selectivity ratio
  SR human blood (ratio HC10 to geometric mean MIC): 1
Human erythrocytes; therapeutic index
  TI human blood (ratio HC50 to geometric mean MIC): 45
